Data reported in patent US12612372B2, “Oxopyridazinyl-phenyl-carbonohydrazonoyl dicyanide compound and use thereof” (KOREA INSTITUTE OF SCIENCE AND TECHNOLOGY, priority 2020, dated 2026).

Experiments:
[1] = Liver microsome stability, dog; format: in vitro ADME; settings: dog liver microsomes 0.25 mg/mL, 1 μM compound, 37° C., 30 minutes, NADPH
Procedure: (§1) The stability of liver microsomes due to the compounds prepared according to Examples 1 to 14 was confirmed. Specifically, four types of liver microsomes (human, dog, rat, and mouse, each 0.25 mg/mL), a 0.1 M phosphate buffer solution (pH 7.4), and each of the compounds at a concentration of 1 μM were mixed and pre-cultured at 37° C. for 5 minutes and further cultured at 37° C. for 30 minutes together with an NADPH generation system solution added thereto. Thereafter, the reaction was terminated by adding an acetonitrile solution containing an internal standard material (chlorpropamide) and centrifuged for 5 minutes (14,000 rpm, 4° C.), and then a supernatant was injected into an LC-MS/MS system for analysis of substrate drugs to thereby evaluate metabolic stability due to 8 types of compounds.
(§2) The amount of the substrate remaining after the reaction was analyzed using the Shimadzu Nexera XR system and TSQ Vantage (Thermo). In an HPLC column, Kinetex XB-C18 (2.1 mm×100 mm, particle size of 2.6 μm; Phenomenex, USA) was used, and mobile phases were (A) distilled water containing 0.1% formic acid and (B) acetonitrile containing 0.1% formic acid. Analyst software (version 1.6.3) and Xcalibur (version 1.6.1) were used for data analysis.

CYP3A4 = biological target: T1, CYP3A4 (Homo sapiens, UniProt P08684); assay: CYP coenzyme activity in human liver microsomes, CYP3A4; format: in vitro ADME; settings: 10 μM compound, human liver microsomes 0.25 mg/mL, substrate midazolam, 15 minutes
T1 construct: human liver microsomes (0.25 mg/mL); from tissue; host or cells: human liver microsomes
Procedure: (§3) Specifically, human liver microsomes (0.25 mg/mL), a 0.1 M phosphate buffer solution (pH 7.4), a substrate drug cocktail of five types of drug metabolism enzymes (50 μM phenacetin, 10 μM diclofenac, 100 μM S-mephenytoin, 5 μM dextromethorphan, and 2.5 μM midazolam), and the compound at a concentration of 0 μM or 10 μM were mixed and pre-cultured at 37° C. for 5 minutes, and then further cultured at 37° C. for 15 minutes together with an NADPH generation system solution added thereto. Thereafter, the reaction was terminated by adding an acetonitrile solution containing an internal standard material (terfenadine) and centrifuged for 5 minutes (14,000 rpm, 4° C.), and then a supernatant was injected into an LC-MS/MS system for simultaneous analysis of metabolites of the substrate drugs to thereby evaluate the inhibitory effects on drug metabolism.
(§4) Metabolites of each CYP coenzyme indicator drug generated through the reaction were analyzed using the Shimadzu Nexera XR system and TSQ Vantage (Thermo). In an HPLC column, Kinetex C18 (2.1 mm×100 mm, 2.6 μm particle size; Phenomenex, USA) was used, and mobile phases were (A) distilled water containing 0.1% formic acid and (B) acetonitrile containing 0.1% formic acid, and a gradient program shown in Table 3 was applied thereto.
(§5) The generated metabolites were quantified using a multiple reaction monitoring (MRM) quantification mode, and Xcalibur (version 1.6.1) was used for data analysis. In order to express the inhibitory effects of the novel compounds prepared according to the examples of the present invention on CYP coenzyme activity, CYP coenzyme activities (%) with respect to the control group not treated with any compound are shown in Table 4 below.

CYP1A2 = biological target: T2, CYP1A2 (Homo sapiens, UniProt P05177); assay: CYP coenzyme activity in human liver microsomes, CYP1A2; format: in vitro ADME; settings: 10 μM compound, human liver microsomes 0.25 mg/mL, substrate phenacetin, 15 minutes
T2 construct: human liver microsomes (0.25 mg/mL); from tissue; host or cells: human liver microsomes
T2 sequence (P05177 1-516): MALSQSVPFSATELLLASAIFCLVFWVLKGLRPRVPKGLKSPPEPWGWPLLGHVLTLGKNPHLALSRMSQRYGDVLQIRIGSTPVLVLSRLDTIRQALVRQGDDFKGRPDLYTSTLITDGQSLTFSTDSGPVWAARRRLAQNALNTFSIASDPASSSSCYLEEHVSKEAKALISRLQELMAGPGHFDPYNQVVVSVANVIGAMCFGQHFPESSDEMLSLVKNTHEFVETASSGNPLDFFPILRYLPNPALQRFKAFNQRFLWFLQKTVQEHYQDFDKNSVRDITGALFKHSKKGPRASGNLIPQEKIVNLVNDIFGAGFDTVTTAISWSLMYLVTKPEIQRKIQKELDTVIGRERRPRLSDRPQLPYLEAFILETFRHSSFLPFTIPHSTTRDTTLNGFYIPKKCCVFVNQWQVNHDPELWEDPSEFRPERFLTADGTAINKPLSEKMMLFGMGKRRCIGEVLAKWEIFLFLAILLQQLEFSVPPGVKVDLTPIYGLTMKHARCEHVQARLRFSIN
Procedure: as §3, §4, §5

[2] = Liver microsome stability, rat; format: in vitro ADME; settings: rat liver microsomes 0.25 mg/mL, 1 μM compound, 37° C., 30 minutes, NADPH
Procedure: as §1, §2

CYP2D6 = biological target: T3, CYP2D6 (Homo sapiens, UniProt P10635); assay: CYP coenzyme activity in human liver microsomes, CYP2D6; format: in vitro ADME; settings: 10 μM compound, human liver microsomes 0.25 mg/mL, substrate dextromethorphan, 15 minutes
T3 construct: human liver microsomes (0.25 mg/mL); from tissue; host or cells: human liver microsomes
Procedure: as §3, §4, §5

[3] = Liver microsome stability, mouse; format: in vitro ADME; settings: mouse liver microsomes 0.25 mg/mL, 1 μM compound, 37° C., 30 minutes, NADPH
Procedure: as §1, §2

CYP2C19 = biological target: T4, CYP2C19 (Homo sapiens, UniProt P33261); assay: CYP coenzyme activity in human liver microsomes, CYP2C19; format: in vitro ADME; settings: 10 μM compound, human liver microsomes 0.25 mg/mL, substrate S-mephenytoin, 15 minutes
T4 construct: human liver microsomes (0.25 mg/mL); from tissue; host or cells: human liver microsomes
Procedure: as §3, §4, §5

[4] = Liver microsome stability, human; format: in vitro ADME; settings: human liver microsomes 0.25 mg/mL, 1 μM compound, 37° C., 30 minutes, NADPH
Procedure: as §1, §2

Tau-BiFC cells = assay: Cell viability (stained nuclei count) in tau-BiFC cells; settings: 10 μM compound; stained nuclei relative to Forskolin-only group (100%), 48 hours
Procedure: (§6) In order to select novel tau protein aggregation—inhibiting substances, tau-BiFC cell model, in which formation of tau oligomers in living cells is easily observed, was used. Tau-BiFC cells were aliquoted into a 384-well plate. […] After 48 hours, nuclei in the cells were stained using Hoechst (at a treatment concentration of 2 μg/mL), and BiFC fluorescence intensity was automatically measured using Operetta (PerkinElmer) to count stained nuclei in each well out of the entire well plate. […] Furthermore, the degree of cytotoxicity induced by the newly synthesized compound was also measured based on the 100% cell viability of the group treated only with Forskolin as a reference, and the cytotoxicity value of each compound was calculated using the equation “(number of stained nuclei in group treated with compound/number of stained nuclei in group treated with Forskolin)×100”.
(§7) After 48 hours, tau protein aggregation reaction and degrees of cytotoxicity were analyzed by observing images of the cells. IC50 and toxicity of the compounds were analyzed by nonlinear regression analysis of Prism software (Graph Pad).

CYP2C9 = biological target: T5, CYP2C9 (Homo sapiens, UniProt P11712); assay: CYP coenzyme activity in human liver microsomes, CYP2C9; format: in vitro ADME; settings: 10 μM compound, human liver microsomes 0.25 mg/mL, substrate diclofenac, 15 minutes
T5 construct: human liver microsomes (0.25 mg/mL); from tissue; host or cells: human liver microsomes
Procedure: as §3, §4, §5

tau protein = biological target: T6, tau protein (Homo sapiens, UniProt P10636); assay: Tau-BiFC cell model, Forskolin-induced tau protein aggregation; format: cell-based; settings: for Tau BiFC in cells Response (%, @10 μM): 10 μM compound, BiFC fluorescence relative to Forskolin-only group (100% tau protein-aggregated state), 48 hours
T6 construct: fused on or other part: Split Venus fragments VN173 and VC155, each fused to one copy of tau as BiFC reporter halves
Procedure: as §6, §7

T4 sequence (P33261 whole entry): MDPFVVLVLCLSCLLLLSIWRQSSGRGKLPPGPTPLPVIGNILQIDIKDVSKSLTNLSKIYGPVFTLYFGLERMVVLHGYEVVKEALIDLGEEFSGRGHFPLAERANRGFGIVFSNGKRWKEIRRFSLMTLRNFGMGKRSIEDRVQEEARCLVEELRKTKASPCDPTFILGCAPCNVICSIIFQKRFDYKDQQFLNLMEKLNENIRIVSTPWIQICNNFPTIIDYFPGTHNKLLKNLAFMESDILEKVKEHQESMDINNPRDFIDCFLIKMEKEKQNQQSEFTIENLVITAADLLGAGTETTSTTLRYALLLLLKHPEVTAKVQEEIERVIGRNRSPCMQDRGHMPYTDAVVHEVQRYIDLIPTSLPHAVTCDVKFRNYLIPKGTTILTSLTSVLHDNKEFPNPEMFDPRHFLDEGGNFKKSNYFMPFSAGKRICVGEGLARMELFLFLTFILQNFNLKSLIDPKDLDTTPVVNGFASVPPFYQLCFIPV
T5 sequence (P11712 whole entry): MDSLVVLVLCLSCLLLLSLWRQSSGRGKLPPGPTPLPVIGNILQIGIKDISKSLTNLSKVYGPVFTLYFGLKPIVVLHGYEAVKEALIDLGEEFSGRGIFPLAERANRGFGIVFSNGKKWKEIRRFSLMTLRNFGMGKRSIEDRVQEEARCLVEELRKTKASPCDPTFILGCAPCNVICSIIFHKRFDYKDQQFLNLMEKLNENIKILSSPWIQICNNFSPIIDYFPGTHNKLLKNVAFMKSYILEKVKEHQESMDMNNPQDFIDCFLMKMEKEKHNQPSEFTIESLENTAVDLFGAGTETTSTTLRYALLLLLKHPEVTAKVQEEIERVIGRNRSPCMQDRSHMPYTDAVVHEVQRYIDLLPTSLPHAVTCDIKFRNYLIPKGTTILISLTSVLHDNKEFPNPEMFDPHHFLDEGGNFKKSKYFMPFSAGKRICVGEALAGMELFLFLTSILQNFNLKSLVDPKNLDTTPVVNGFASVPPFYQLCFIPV
T6 sequence (P10636 2-441 isoform P10636-8 limits assumed): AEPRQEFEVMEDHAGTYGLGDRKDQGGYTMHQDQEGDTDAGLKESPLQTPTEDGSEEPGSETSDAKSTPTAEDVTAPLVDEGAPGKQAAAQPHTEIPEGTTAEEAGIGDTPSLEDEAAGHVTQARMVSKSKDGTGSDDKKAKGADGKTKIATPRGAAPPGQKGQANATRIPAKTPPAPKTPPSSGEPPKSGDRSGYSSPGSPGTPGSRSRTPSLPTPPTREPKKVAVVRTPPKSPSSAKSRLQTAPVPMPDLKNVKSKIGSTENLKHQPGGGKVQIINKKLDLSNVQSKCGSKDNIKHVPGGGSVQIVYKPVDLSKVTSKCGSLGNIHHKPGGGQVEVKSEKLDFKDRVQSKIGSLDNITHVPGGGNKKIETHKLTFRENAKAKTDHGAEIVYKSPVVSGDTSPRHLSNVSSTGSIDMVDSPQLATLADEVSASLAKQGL
T1 sequence (P08684 whole entry): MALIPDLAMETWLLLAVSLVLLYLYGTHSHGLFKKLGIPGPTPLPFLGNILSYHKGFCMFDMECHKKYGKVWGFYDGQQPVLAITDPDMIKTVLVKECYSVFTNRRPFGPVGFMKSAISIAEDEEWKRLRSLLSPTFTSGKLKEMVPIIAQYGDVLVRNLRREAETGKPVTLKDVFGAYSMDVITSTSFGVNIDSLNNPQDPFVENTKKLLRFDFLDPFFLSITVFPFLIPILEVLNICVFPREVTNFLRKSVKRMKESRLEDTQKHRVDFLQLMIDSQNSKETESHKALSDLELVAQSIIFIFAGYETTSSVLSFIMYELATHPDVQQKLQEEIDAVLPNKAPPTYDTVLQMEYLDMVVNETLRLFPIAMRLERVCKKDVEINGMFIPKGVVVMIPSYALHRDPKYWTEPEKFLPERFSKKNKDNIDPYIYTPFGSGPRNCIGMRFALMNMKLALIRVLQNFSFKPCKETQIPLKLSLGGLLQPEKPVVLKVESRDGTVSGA
T3 sequence (P10635 whole entry): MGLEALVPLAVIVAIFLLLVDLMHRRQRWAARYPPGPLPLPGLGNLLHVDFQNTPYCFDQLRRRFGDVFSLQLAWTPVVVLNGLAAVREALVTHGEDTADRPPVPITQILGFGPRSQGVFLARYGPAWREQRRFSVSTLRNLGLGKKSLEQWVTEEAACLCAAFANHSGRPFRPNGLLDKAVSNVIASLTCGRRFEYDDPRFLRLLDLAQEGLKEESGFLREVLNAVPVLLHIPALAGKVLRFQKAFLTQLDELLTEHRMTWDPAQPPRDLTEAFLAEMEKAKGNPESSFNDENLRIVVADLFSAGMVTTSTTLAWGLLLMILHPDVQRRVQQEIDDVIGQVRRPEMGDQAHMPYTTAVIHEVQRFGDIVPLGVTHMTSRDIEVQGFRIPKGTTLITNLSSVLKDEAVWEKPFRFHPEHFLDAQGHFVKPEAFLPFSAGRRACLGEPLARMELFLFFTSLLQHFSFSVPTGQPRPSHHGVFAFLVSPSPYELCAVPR

Row | SMILES | Dog (%) amount remaining after the reaction [1] | CYP3A4 activity (%) with respect to control group not treated with any compound (CYP3A4) | CYP1A2 activity (%) with respect to control group not treated with any compound (CYP1A2) | Rat (%) amount remaining after the reaction [2] | CYP2D6 activity (%) with respect to control group not treated with any compound (CYP2D6) | Mouse (%) amount remaining after the reaction [3] | CYP2C19 activity (%) with respect to control group not treated with any compound (CYP2C19) | Human (%) amount remaining after the reaction [4] | Cell viability (%, @10 μM) (Tau-BiFC cells) | CYP2C9 activity (%) with respect to control group not treated with any compound (CYP2C9) | IC50 (tau protein) | Tau BiFC in cells Response (%, @10 μM) (tau protein)
1 | CC1CC(=O)N(C2CC2)N=C1c1ccc(NN=C(C#N)C#N)cc1 (stereo not drawn) [Example 6, (4-(1-cyclopropyl-4-methyl-6-oxo-1,4,5,6-tetrahydropyridazin-3-yl)phenyl)carbonohydrazonoyl dicyanide] | 99.5% | 79.5% | 78.6% | 95.8% | 72.6% | 92.7% | 74.2% | 85% | 62.9% | 74.2% | 0.07 µM | 0%
2 | CC1CC(=O)N(C(C)C)N=C1c1ccc(NN=C(C#N)C#N)cc1 (stereo not drawn) [Example 2, (4-(1-isopropyl-4-methyl-6-oxo-1,4,5,6-tetrahydropyridazin-3-yl)phenyl)carbonohydrazonoyl dicyanide] | >100% | 74.6% | 80.5% | 92.5% | 84.9% | 89% | 64.7% | 63.6% | 102.8% | 65.7% | 0.4 µM | 0%
3 | CC1CC(=O)N(CC(F)(F)F)N=C1c1ccc(NN=C(C#N)C#N)cc1 (stereo not drawn) [Example 4, (4-(4-methyl-6-oxo-1-(2,2,2-trifluoroethyl)-1,4,5,6-tetrahydropyridazin-3-yl)phenyl)carbonohydrazonoyl dicyanide] | 95.6% | 74.2% | 74.8% | 96.8% | 62.1% | 89% | 45.5% | 98.2% | 98.7% | 55.6% | 0.45 µM | 0%
